Results on seven compounds are retold here after ChEMBL document CHEMBL5291721, “A preclinical secondary pharmacology resource illuminates target-adverse drug reaction associations of marketed drugs” (Nat Commun, 2023).

One experiment deals with Adenosine receptor A2a (Homo sapiens, UniProt P29274).
Experiment [1] concerns the target T1, Type-1 angiotensin II receptor (Homo sapiens, UniProt P30556).
T1 sequence (P30556 whole entry): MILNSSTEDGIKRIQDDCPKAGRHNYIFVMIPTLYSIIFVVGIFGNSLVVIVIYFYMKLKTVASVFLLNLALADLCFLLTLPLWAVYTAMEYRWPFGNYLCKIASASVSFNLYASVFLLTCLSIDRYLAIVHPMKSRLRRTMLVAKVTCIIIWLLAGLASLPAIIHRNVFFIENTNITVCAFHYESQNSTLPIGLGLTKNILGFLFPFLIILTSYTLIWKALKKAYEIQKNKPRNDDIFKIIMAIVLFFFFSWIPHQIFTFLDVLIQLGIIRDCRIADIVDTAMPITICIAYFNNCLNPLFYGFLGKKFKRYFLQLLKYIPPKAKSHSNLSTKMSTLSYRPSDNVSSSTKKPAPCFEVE

Experiment [2] has as its target Voltage-dependent L-type calcium channel subunit alpha-1C (Rattus norvegicus, UniProt P22002). The class given is functional.
The target of experiment [3] is T2, Cholecystokinin receptor type A (Homo sapiens, UniProt P32238).
T2 sequence (P32238 whole entry): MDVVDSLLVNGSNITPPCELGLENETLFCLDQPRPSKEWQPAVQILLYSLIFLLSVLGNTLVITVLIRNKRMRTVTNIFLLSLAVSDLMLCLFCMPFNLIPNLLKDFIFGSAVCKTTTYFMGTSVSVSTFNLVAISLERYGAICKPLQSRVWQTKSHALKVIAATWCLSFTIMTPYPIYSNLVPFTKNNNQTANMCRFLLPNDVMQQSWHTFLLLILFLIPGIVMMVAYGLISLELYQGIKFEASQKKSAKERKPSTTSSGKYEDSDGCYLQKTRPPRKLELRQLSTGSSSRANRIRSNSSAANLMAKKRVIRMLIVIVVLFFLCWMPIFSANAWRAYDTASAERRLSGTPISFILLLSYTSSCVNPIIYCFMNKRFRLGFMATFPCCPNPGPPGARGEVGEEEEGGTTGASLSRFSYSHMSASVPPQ

The target of experiment [4] is Neuronal acetylcholine receptor subunit alpha-4 (Homo sapiens, UniProt P43681).
Experiment [5] addresses T3, Cannabinoid receptor 1 (Homo sapiens, UniProt P21554). The class given is functional, cell-based.
Experiment [6] concerns the target T3, Cannabinoid receptor 1. The class given is functional, cell-based. The source holds these as a separate data set.
A further experiment deals with D(1A) dopamine receptor (Homo sapiens, UniProt P21728). The experiment is classed as functional, cell-based.
The target of experiment [7] is Gamma-aminobutyric acid receptor subunit alpha-1 (Rattus norvegicus, UniProt P62813). The class given is functional.
Experiment [8] has as its target Glutamate receptor ionotropic, NMDA 1 (Rattus norvegicus, UniProt P35439).
The target of a further experiment is Histamine H2 receptor (Homo sapiens, UniProt P25021). The experiment is classed as functional, cell-based.
Experiment [9] addresses T4, Prostaglandin G/H synthase 1 (Rattus norvegicus, UniProt Q63921).
T4 sequence (Q63921 whole entry): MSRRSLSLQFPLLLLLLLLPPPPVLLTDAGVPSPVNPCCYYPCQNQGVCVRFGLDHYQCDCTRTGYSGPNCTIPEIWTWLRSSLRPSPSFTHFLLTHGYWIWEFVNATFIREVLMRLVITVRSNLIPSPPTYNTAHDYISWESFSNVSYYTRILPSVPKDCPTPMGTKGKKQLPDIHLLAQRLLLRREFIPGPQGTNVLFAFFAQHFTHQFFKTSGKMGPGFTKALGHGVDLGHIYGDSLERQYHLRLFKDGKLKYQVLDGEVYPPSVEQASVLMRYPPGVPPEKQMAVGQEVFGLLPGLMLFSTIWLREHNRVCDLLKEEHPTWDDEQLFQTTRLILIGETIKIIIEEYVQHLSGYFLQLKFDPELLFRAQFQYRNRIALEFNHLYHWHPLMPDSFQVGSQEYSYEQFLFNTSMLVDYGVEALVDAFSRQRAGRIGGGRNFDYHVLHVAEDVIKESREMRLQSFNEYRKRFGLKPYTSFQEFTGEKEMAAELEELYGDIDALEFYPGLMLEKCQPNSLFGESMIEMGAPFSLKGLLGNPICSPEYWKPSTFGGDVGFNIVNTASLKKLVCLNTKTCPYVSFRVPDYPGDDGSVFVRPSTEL
The experiment is classed as functional.

The target of experiment [10] is Sodium-dependent noradrenaline transporter (Homo sapiens, UniProt P23975).
Note: assay procedure not described here.

Sequence of D(1A) dopamine receptor (P21728 whole entry): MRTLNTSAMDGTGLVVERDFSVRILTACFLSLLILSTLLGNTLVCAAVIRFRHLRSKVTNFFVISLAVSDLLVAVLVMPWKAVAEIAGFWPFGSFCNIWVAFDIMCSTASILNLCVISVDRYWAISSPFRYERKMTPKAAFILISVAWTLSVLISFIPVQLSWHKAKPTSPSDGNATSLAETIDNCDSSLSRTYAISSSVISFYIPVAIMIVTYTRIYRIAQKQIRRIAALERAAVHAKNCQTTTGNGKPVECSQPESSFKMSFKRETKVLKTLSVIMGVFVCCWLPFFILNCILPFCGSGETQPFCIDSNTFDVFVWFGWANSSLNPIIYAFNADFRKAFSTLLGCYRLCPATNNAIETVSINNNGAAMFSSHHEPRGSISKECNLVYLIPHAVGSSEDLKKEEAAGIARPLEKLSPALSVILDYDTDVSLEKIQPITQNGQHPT
T3 sequence (P21554 whole entry): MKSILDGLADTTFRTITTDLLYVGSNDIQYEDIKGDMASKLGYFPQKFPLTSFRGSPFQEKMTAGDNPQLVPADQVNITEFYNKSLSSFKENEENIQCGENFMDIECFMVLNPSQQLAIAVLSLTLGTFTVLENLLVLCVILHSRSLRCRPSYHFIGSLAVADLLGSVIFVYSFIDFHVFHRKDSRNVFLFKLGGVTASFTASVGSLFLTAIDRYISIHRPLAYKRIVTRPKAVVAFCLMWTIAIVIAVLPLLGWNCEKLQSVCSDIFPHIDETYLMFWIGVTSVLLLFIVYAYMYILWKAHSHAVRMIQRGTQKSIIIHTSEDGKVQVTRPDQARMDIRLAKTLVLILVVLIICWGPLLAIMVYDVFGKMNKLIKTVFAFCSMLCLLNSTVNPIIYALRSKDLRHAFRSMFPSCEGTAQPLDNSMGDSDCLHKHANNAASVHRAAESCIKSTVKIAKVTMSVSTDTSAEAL
Sequence of Adenosine receptor A2a (P29274 whole entry): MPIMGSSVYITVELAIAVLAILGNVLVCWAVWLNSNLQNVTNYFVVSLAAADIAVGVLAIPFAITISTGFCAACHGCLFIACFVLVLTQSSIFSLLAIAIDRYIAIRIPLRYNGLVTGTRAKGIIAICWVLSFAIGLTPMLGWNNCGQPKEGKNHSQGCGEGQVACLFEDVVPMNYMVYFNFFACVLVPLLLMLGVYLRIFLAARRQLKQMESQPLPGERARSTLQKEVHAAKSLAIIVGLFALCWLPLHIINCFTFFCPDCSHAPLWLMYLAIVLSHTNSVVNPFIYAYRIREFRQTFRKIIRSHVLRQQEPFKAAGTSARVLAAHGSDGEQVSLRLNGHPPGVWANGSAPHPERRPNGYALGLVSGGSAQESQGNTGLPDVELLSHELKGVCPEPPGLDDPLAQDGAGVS
Sequence of Histamine H2 receptor (P25021 whole entry): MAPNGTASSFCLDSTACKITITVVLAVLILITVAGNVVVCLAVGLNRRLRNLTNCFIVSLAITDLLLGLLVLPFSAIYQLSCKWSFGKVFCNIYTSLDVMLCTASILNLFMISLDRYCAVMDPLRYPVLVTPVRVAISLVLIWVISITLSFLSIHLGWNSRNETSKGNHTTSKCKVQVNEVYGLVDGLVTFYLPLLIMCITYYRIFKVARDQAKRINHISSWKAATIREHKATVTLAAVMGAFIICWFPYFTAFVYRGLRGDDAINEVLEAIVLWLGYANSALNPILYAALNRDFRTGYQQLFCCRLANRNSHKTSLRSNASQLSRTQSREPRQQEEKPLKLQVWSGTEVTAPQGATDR
Sequence of Voltage-dependent L-type calcium channel subunit alpha-1C (P22002 whole entry): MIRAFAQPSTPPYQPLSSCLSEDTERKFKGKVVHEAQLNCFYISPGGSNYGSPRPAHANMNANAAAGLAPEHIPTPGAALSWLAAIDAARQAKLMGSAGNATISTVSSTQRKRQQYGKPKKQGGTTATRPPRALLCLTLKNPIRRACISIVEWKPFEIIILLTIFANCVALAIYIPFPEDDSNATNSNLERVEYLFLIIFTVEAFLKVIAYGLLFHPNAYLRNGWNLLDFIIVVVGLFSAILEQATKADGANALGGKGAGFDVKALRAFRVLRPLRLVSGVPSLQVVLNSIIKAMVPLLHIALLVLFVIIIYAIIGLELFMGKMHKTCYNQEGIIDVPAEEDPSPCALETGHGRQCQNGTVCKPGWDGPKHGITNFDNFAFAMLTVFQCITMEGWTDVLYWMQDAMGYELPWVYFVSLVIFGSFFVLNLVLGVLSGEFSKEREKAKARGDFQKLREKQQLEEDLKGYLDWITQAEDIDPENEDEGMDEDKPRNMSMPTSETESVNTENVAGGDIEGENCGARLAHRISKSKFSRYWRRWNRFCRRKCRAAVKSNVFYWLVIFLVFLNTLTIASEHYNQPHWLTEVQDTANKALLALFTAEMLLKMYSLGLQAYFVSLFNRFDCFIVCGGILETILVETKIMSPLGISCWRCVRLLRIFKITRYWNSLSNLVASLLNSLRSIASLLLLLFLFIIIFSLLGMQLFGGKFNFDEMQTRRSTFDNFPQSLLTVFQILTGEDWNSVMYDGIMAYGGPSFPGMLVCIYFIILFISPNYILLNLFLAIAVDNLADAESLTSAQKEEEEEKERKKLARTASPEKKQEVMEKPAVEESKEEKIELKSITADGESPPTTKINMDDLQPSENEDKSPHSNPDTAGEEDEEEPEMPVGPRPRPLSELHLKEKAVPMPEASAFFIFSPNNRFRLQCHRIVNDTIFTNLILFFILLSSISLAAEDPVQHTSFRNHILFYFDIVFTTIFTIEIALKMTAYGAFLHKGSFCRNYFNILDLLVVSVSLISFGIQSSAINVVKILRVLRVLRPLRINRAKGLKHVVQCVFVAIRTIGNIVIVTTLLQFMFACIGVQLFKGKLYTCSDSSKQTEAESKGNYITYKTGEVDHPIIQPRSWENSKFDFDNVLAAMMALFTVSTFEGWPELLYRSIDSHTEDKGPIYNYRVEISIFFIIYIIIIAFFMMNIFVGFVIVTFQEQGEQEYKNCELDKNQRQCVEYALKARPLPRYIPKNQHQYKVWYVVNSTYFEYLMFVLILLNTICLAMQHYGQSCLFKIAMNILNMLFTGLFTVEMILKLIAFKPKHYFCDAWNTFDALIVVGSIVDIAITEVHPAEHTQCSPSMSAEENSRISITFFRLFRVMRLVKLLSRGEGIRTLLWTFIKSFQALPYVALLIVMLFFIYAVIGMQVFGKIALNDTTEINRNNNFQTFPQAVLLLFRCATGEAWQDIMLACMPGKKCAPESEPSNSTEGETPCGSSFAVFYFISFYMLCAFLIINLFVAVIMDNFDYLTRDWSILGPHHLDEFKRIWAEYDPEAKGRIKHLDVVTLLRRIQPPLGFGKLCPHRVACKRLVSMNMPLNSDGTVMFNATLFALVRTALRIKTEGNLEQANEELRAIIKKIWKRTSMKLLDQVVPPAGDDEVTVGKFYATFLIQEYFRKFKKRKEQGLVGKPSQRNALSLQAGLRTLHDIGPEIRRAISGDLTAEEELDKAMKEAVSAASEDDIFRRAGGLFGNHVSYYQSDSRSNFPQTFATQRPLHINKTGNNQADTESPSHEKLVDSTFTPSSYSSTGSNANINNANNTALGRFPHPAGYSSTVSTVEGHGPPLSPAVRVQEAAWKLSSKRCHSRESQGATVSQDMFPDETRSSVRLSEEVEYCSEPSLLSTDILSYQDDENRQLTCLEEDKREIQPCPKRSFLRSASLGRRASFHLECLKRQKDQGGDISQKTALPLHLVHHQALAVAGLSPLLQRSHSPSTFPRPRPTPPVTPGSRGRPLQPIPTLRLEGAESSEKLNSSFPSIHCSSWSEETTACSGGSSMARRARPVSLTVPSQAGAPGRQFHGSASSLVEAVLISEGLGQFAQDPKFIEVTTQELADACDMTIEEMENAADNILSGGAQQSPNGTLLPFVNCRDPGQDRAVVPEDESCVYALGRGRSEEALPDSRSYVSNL
Sequence of Sodium-dependent noradrenaline transporter (P23975 whole entry): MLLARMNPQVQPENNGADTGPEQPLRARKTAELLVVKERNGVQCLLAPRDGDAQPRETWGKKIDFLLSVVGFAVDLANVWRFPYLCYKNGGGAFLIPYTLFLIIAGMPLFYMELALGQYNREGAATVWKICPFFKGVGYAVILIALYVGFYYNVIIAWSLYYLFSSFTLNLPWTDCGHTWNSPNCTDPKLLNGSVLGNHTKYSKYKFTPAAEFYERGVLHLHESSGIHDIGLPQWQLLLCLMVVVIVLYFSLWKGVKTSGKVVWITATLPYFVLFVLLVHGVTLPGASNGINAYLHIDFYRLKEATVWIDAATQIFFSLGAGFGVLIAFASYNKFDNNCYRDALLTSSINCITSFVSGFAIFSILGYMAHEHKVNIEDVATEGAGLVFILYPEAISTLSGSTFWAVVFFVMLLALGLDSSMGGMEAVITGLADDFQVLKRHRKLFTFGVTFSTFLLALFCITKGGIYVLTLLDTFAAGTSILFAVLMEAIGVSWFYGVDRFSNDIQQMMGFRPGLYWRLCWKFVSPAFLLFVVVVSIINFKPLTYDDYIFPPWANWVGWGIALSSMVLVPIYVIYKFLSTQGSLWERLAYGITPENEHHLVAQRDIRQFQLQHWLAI
Sequence of Gamma-aminobutyric acid receptor subunit alpha-1 (P62813 whole entry): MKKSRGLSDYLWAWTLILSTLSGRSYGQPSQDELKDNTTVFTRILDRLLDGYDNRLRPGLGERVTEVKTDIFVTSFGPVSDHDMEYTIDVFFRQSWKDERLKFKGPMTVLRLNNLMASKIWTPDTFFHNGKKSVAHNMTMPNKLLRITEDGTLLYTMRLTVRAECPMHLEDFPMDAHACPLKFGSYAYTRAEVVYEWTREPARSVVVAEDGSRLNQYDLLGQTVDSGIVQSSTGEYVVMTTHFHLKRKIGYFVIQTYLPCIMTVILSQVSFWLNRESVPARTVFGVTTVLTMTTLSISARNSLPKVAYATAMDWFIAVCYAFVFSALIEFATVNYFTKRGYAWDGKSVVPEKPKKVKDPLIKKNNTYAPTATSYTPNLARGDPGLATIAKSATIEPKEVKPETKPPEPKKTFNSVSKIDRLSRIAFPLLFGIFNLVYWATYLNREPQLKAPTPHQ

For `CCN1CCC[C@H]1CNC(=O)c1cc(S(N)(=O)=O)ccc1OC` [LEVOSULPIRIDE], the AC50 (as a rule, the midpoint of the concentration-response curve, whichever way the signal moves) was > 30 µM on Adenosine receptor A2a; > 30 µM in [1]; > 10 µM in experiment [2]; > 30 µM in [3]; > 10 µM in experiment [4]; > 30 µM at Cannabinoid receptor 1 [5]. Besides, the AC50 on Cannabinoid receptor 1 [6] was > 30 µM; at D(1A) dopamine receptor it was > 30 µM; in experiment [7], > 10 µM; in experiment [8], > 10 µM; at Histamine H2 receptor it was > 10 µM; in experiment [9], > 30 µM. The AC50 in [10] was > 30 µM.

Take `C[C@]12CCC(=O)C=C1CC[C@@H]1[C@@H]2CC[C@@]2(C)[C@H]1CC[C@]2(C)O` [METHYLTESTOSTERONE]: the AC50 (at Adenosine receptor A2a; in experiment [1]; in experiment [2]; in experiment [3]; in experiment [4]; at Cannabinoid receptor 1 [5]) was > 30 µM throughout. Also, the AC50 (at Cannabinoid receptor 1 [6]; on D(1A) dopamine receptor; in experiment [7]; in experiment [8]; on Histamine H2 receptor; in experiment [9]) was > 30 µM throughout. In experiment [10], the AC50 was > 30 µM.

Turning to `CN[C@@H](C)[C@H](O)c1ccccc1` [EPHEDRINE], the AC50 is > 30 µM at Adenosine receptor A2a; > 30 µM in [1]; > 10 µM in experiment [2]; > 30 µM in [3]; > 10 µM in [4]; > 30 µM at Cannabinoid receptor 1 [5]. The AC50 at Cannabinoid receptor 1 [6] was > 30 µM; on D(1A) dopamine receptor it was > 10 µM; in [7], > 10 µM; in [8], > 10 µM; at Histamine H2 receptor, > 10 µM; in [9] it was > 30 µM. Further, in experiment [10], the AC50 was > 10 µM.

Take `CN(C)C(=O)OC1N=C(c2ccccc2)c2cc(Cl)ccc2N(C)C1=O` (stereo unspecified) [CAMAZEPAM]: the AC50 on Adenosine receptor A2a was > 30 µM; in experiment [1], > 30 µM; in experiment [2], > 10 µM; in [3], > 30 µM; in experiment [4] it was > 10 µM; at Cannabinoid receptor 1 [5], > 30 µM. In addition, the AC50 is > 30 µM on Cannabinoid receptor 1 [6]; > 10 µM at D(1A) dopamine receptor; 0.96 µM in experiment [7]; > 10 µM in [8]; > 10 µM on Histamine H2 receptor; > 30 µM in experiment [9]. Moreover, the AC50 in experiment [10] was > 10 µM.

With `Cc1cc(-c2ccccc2)nnc1NCCN1CCOCC1` [MINAPRINE], the AC50 on Adenosine receptor A2a is > 30 µM; in [1], > 30 µM; in [2] it was > 10 µM; in experiment [3] it was > 30 µM; in experiment [4], > 10 µM; at Cannabinoid receptor 1 [5] it was > 30 µM. The AC50 was > 30 µM at Cannabinoid receptor 1 [6]; > 10 µM on D(1A) dopamine receptor; > 10 µM in [7]; > 10 µM in [8]; > 10 µM on Histamine H2 receptor; > 30 µM in experiment [9]. Besides, in experiment [10], the AC50 was > 10 µM.

As to `CC(C)C(=O)OCC(=O)[C@@]12O[C@H](C3CCCCC3)O[C@@H]1C[C@H]1[C@@H]3CCC4=CC(=O)C=C[C@]4(C)[C@H]3[C@@H](O)C[C@@]12C` [CICLESONIDE], the AC50 on Adenosine receptor A2a is > 30 µM; in experiment [1], > 10 µM; in experiment [2] it was > 10 µM; in [3] it was > 10 µM; in experiment [4] it was > 10 µM; on Cannabinoid receptor 1 [5], > 30 µM. In addition, the AC50 on Cannabinoid receptor 1 [6] is > 30 µM; at D(1A) dopamine receptor, > 10 µM; in experiment [7], > 10 µM; in [8], > 10 µM; at Histamine H2 receptor it was > 10 µM; in experiment [9], > 10 µM. Further, the AC50 in [10] was > 10 µM.

As for `COc1ccc2cccc(CCNC(C)=O)c2c1` [AGOMELATINE], the AC50 at Adenosine receptor A2a is > 30 µM; in [1], > 30 µM; in experiment [2], > 10 µM; in [3], > 30 µM; in [4], > 10 µM; at Cannabinoid receptor 1 [5], > 30 µM. The AC50 was > 30 µM at Cannabinoid receptor 1 [6]; > 10 µM at D(1A) dopamine receptor; > 10 µM in [7]; > 10 µM in experiment [8]; > 30 µM on Histamine H2 receptor; > 30 µM in experiment [9]. Moreover, the AC50 in experiment [10] is > 10 µM.
